Values of other authors, collected in patent US9068996B2, “Analyte detection method” (SPHERE MEDICAL LIMITED, priority 2010, dated 2015).
Where two headings read alike, the source gives them in different places.

Settings: for average blood propofol concentration required: patients

CC(C)c1cccc(C(C)C)c1O [propofol, 2,6-di-isopropylphenol]
Blood propofol concentration at which 50% of patients (EC50) were awake (after surgery, awake): 1.07 µg/mL | Blood propofol concentration at which 50% of patients (EC50) were oriented (after surgery, oriented): 0.95 µg/mL | average blood propofol concentration required (major surgery): 4.05 ± 1.01 µg/mL | average blood propofol concentration required (non-major surgery): 2.97 ± 1.07 µg/mL
